Data published in patent publication US20250263424A1, “KRAS INHIBITORS” (Bristol-Myers Squibb Company, priority 2022, published 2025).

These molecules were tested against Recombinant GMPPNP-loaded KRAS G12C (KRAS-G12C(ON), active form) (Homo sapiens, UniProt P01116, G12C) (assay: KRAS G12C RAF Disruption Assay (HTRF)). Details: GMPPNP-loaded KRAS G12C 5 nM, GST-RAF1 RBD 9 nM, values in nM, read-out: KRASG12C RAF Disruption Assay (IC50).
Format: biochemical
Procedure, shortened: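 GMPPNP-loaded KRAS G12C (5 nM) preincubated with compound 20 min at room temperature in Tris pH 7.5 buffer with MgCl2, DTT and BSA. GST-RAF1 RBD (9 nM) then added for 20 min, and SA-Tb (0.25 nM) for 3 h. HTRF 520/495 ratio read; IC50 taken from the dose-response curve.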

Recombinant GMPPNP-loaded KRAS G12C (KRAS-G12C(ON), active form), sequence (P01116 1-188 isoform P01116-2 G12C): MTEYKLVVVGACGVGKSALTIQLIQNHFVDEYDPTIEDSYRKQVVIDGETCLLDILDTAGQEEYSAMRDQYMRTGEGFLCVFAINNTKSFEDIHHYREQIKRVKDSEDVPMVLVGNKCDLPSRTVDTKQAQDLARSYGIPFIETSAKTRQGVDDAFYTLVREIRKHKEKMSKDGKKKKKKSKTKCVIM

SMILES	IC50 [nM]
Cc1ccc2[nH]ncc2c1-c1ccc2c(N3CCN(C(=O)/C(F)=C/c4nccs4)[C@@H](CC#N)C3)nc(OC[C@@H]3CCCN3C)nc2c1F [Example 51, 2-((2S)-1-((Z)-2-fluoro-3-(thiazol-2-yl)acryloyl)-4-(8-fluoro-7-(5-methyl-1H-indazol-4-yl)-2-(((S)-1-methylpyrrolidin-2-yl)methoxy)quinazolin-4-yl)piperazin-2-yl)acetonitrile]	160
Cc1ccc2[nH]ncc2c1-c1ccc2c(N3CCN(C(=O)/C(F)=C/c4ncccn4)[C@@H](CC#N)C3)nc(OC[C@@H]3CCCN3C)nc2c1F [Example 52, 2-((2S)-1-((Z)-2-fluoro-3-(pyrimidin-2-yl)acryloyl)-4-(8-fluoro-7-(5-methyl-1H-indazol-4-yl)-2-(((S)-1-methylpyrrolidin-2-yl)methoxy)quinazolin-4-yl)piperazin-2-yl)acetonitrile]	450
Cc1ccc2[nH]ncc2c1-c1ccc2c(N3CCN(C(=O)/C(F)=C/c4cccnn4)[C@@H](CC#N)C3)nc(OC[C@@H]3CCCN3C)nc2c1F [Example 53]	70
CN1CCC[C@H]1COc1nc(N2CCN(C(=O)/C(F)=C/c3ncccn3)[C@@H](CC#N)C2)c2ccc(-c3c(O)cccc3F)c(F)c2n1 [Example 55, 2-((2S)-1-((Z)-2-fluoro-3-(pyrimidin-2-yl)acryloyl)-4-(8-fluoro-7-(2-fluoro-6-hydroxyphenyl)-2-(((S)-1-methylpyrrolidin-2-yl)methoxy)quinazolin-4-yl)piperazin-2-yl)acetonitrile]	1000
CN1CCC[C@H]1COc1nc(N2CCN(C(=O)/C(F)=C/c3nccs3)[C@@H](CC#N)C2)c2ccc(-c3c(O)cccc3F)c(F)c2n1 [Example 56, 2-((2S)-1-((Z)-2-fluoro-3-(thiazol-2-yl)acryloyl)-4-(8-fluoro-7-(2-fluoro-6-hydroxyphenyl)-2-(((S)-1-methylpyrrolidin-2-yl)methoxy)quinazolin-4-yl)piperazin-2-yl)acetonitrile]	270
CN1CCC[C@H]1COc1nc(N2CCN(C(=O)/C(F)=C/c3cccnn3)[C@@H](CC#N)C2)c2ccc(-c3c(O)cccc3F)c(F)c2n1 [Example 57]	130
CCc1cccc2cccc(-c3ccc4c(N5CCN(C(=O)/C(F)=C/c6cnccn6)[C@@H](CC#N)C5)nc(OC[C@@H]5CCCN5C)nc4c3F)c12 [Example 58, 2-((S)-4-(7-(8-ethylnaphthalen-1-yl)-8-fluoro-2-(((S)-1-methylpyrrolidin-2-yl)methoxy)quinazolin-4-yl)-1-((Z)-2-fluoro-3-(pyrazin-2-yl)acryloyl)piperazin-2-yl)acetonitrile]	2400
CCc1cccc2cccc(-c3ccc4c(N5CCN(C(=O)/C(F)=C/c6ccccn6)[C@@H](CC#N)C5)nc(OC[C@@H]5CCCN5C)nc4c3F)c12 [Example 59, 2-((S)-4-(7-(8-ethylnaphthalen-1-yl)-8-fluoro-2-(((S)-1-methylpyrrolidin-2-yl)methoxy)quinazolin-4-yl)-1-((Z)-2-fluoro-3-(pyridin-2-yl)acryloyl)piperazin-2-yl)acetonitrile]	260
CCc1cccc2cccc(-c3ccc4c(N5CCN(C(=O)/C(F)=C/c6nccs6)[C@@H](CC#N)C5)nc(OC[C@@H]5CCCN5C)nc4c3F)c12 [Example 60, 2-((S)-4-(7-(8-ethylnaphthalen-1-yl)-8-fluoro-2-(((S)-1-methylpyrrolidin-2-yl)methoxy)quinazolin-4-yl)-1-((Z)-2-fluoro-3-(thiazol-2-yl)acryloyl)piperazin-2-yl)acetonitrile]	170
COc1ccc(Cl)cc1-c1ccc2c(N3CCN(C(=O)/C(F)=C/c4ccccn4)[C@@H](CC#N)C3)nc(OC[C@@H]3CCCN3C)nc2c1F [Example 61, 2-((S)-4-(7-(5-chloro-2-methoxyphenyl)-8-fluoro-2-(((S)-1-methylpyrrolidin-2-yl)methoxy)quinazolin-4-yl)-1-((Z)-2-fluoro-3-(pyridin-2-yl)acryloyl)piperazin-2-yl)acetonitrile]	2800
COc1ccc(Cl)cc1-c1ccc2c(N3CCN(C(=O)/C(F)=C/c4nccs4)[C@@H](CC#N)C3)nc(OC[C@@H]3CCCN3C)nc2c1F [Example 62, 2-((S)-4-(7-(5-chloro-2-methoxyphenyl)-8-fluoro-2-(((S)-1-methylpyrrolidin-2-yl)methoxy)quinazolin-4-yl)-1-((Z)-2-fluoro-3-(thiazol-2-yl)acryloyl)piperazin-2-yl)acetonitrile]	3100
COc1ccc(Cl)cc1-c1ccc2c(N3CCN(C(=O)/C(F)=C/c4ncccn4)[C@@H](CC#N)C3)nc(OC[C@@H]3CCCN3C)nc2c1F [Example 63, 2-((S)-4-(7-(5-chloro-2-methoxyphenyl)-8-fluoro-2-(((S)-1-methylpyrrolidin-2-yl)methoxy)quinazolin-4-yl)-1-((Z)-2-fluoro-3-(pyrimidin-2-yl)acryloyl)piperazin-2-yl)acetonitrile]	9800

Next, values leading:

IC50 [nM]	SMILES
61000	COc1ccc(Cl)cc1-c1ccc2c(N3CCN(C(=O)/C(F)=C/c4cnccn4)[C@@H](CC#N)C3)nc(OC[C@@H]3CCCN3C)nc2c1F [Example 64]
2100	CN1CCC[C@H]1COc1nc(N2CCN(C(=O)/C(F)=C/c3ccccn3)[C@@H](CC#N)C2)c2ccc(-c3cc(Cl)ccc3OC(F)(F)F)c(F)c2n1 [Example 65, 2-((S)-4-(7-(5-chloro-2-(trifluoromethoxy)phenyl)-8-fluoro-2-(((S)-1-methylpyrrolidin-2-yl)methoxy)quinazolin-4-yl)-1-((Z)-2-fluoro-3-(pyridin-2-yl)acryloyl)piperazin-2-yl)acetonitrile]
3200	CN1CCC[C@H]1COc1nc(N2CCN(C(=O)/C(F)=C/c3nccs3)[C@@H](CC#N)C2)c2ccc(-c3cc(Cl)ccc3OC(F)(F)F)c(F)c2n1 [Example 66, 2-((S)-4-(7-(5-chloro-2-(trifluoromethoxy)phenyl)-8-fluoro-2-(((S)-1-methylpyrrolidin-2-yl)methoxy)quinazolin-4-yl)-1-((Z)-2-fluoro-3-(thiazol-2-yl)acryloyl)piperazin-2-yl)acetonitrile]
4700	CN1CCC[C@H]1COc1nc(N2CCN(C(=O)/C(F)=C/c3ncccn3)[C@@H](CC#N)C2)c2ccc(-c3cc(Cl)ccc3OC(F)(F)F)c(F)c2n1 [Example 67, 2-((S)-4-(7-(5-chloro-2-(trifluoromethoxy)phenyl)-8-fluoro-2-(((S)-1-methylpyrrolidin-2-yl)methoxy)quinazolin-4-yl)-1-((Z)-2-fluoro-3-(pyrimidin-2-yl)acryloyl)piperazin-2-yl)acetonitrile]
20400	CN1CCC[C@H]1COc1nc(N2CCN(C(=O)/C(F)=C/c3cnccn3)[C@@H](CC#N)C2)c2ccc(-c3cc(Cl)ccc3OC(F)(F)F)c(F)c2n1 [Example 68, 2-((S)-4-(7-(5-chloro-2-(trifluoromethoxy)phenyl)-8-fluoro-2-(((S)-1-methylpyrrolidin-2-yl)methoxy)quinazolin-4-yl)-1-((Z)-2-fluoro-3-(pyrazin-2-yl)acryloyl)piperazin-2-yl)acetonitrile]
7900	Cc1cc(N)nc(-c2c(Cl)cc3c(N4CC[C@@H]5CC[C@H](C4)N5C(=O)/C(F)=C/c4nccs4)nc(OC[C@]45CCC[C@H]4N(C)CCC5)nc3c2F)c1C(F)(F)F [Example 70, (Z)-1-((1R,6S)-3-(7-(6-amino-4-methyl-3-(trifluoromethyl)pyridin-2-yl)-6-chloro-8-fluoro-2-(((4aS,7aR)-1-methyloctahydro-4aH-cyclopenta[b]pyridin-4a-yl)methoxy)quinazolin-4-yl)-3,9-diazabicyclo[4.2.1]nonan-9-yl)-2-fluoro-3-(thiazol-2-yl)prop-2-en-1-one]
9000	Cc1cc(N)nc(-c2c(Cl)cc3c(N4CC[C@@H]5CC[C@H](C4)N5C(=O)/C(F)=C/c4nccs4)nc(OC[C@@]45CCCN4C[C@H](F)C5)nc3c2F)c1C(F)(F)F [Example 71, (Z)-1-((1R,6S)-3-(7-(6-amino-4-methyl-3-(trifluoromethyl)pyridin-2-yl)-6-chloro-8-fluoro-2-(((2R,7aS)-2-fluorotetrahydro-1H-pyrrolizin-7a(5H)-yl)methoxy)quinazolin-4-yl)-3,9-diazabicyclo[4.2.1]nonan-9-yl)-2-fluoro-3-(thiazol-2-yl)prop-2-en-1-one]
2	C#Cc1c(F)ccc2cc(O)cc(-c3ccc4c(N5CCN(C(=O)/C(F)=C/c6nccs6)CC5)nc(OC[C@@]56CCCN5C[C@H](F)C6)nc4c3F)c12 [Example 72, (Z)-1-(4-(7-(8-ethynyl-7-fluoro-3-hydroxynaphthalen-1-yl)-8-fluoro-2-(((2R,7aS)-2-fluorotetrahydro-1H-pyrrolizin-7a(5H)-yl)methoxy)quinazolin-4-yl)piperazin-1-yl)-2-fluoro-3-(thiazol-2-yl)prop-2-en-1-one]
710	COCCCN1CCC(Oc2nc(N3CCN(C(=O)/C(F)=C/c4ccccn4)[C@@H](CC#N)C3)c3ccc(-c4cccc5cccc(Cl)c45)c(F)c3n2)CC1 [Example 73, (S,Z)-2-(4-(7-(8-chloronaphthalen-1-yl)-8-fluoro-2-((1-(3-methoxypropyl)piperidin-4-yl)oxy)quinazolin-4-yl)-1-(2-fluoro-3-(pyridin-2-yl)acryloyl)piperazin-2-yl)acetonitrile]
1500	COCCCN1CCC(Oc2nc(N3CCN(C(=O)/C(F)=C/c4nccs4)[C@@H](CC#N)C3)c3ccc(-c4cccc5cccc(Cl)c45)c(F)c3n2)CC1 [Example 74, (S,Z)-2-(4-(7-(8-chloronaphthalen-1-yl)-8-fluoro-2-((1-(3-methoxypropyl)piperidin-4-yl)oxy)quinazolin-4-yl)-1-(2-fluoro-3-(thiazol-2-yl)acryloyl)piperazin-2-yl)acetonitrile]
